# Reference: PMC11490238 (Drug Design, Development and Therapy, 2024)
# Tests used:
# CYP1A2 [1] = molecular target: T1, CYP1A2 (Homo sapiens, UniProt P05177); settings: calculated from ISEF (0.69) and CLint,rhCYP
# T1 sequence (P05177 1-516): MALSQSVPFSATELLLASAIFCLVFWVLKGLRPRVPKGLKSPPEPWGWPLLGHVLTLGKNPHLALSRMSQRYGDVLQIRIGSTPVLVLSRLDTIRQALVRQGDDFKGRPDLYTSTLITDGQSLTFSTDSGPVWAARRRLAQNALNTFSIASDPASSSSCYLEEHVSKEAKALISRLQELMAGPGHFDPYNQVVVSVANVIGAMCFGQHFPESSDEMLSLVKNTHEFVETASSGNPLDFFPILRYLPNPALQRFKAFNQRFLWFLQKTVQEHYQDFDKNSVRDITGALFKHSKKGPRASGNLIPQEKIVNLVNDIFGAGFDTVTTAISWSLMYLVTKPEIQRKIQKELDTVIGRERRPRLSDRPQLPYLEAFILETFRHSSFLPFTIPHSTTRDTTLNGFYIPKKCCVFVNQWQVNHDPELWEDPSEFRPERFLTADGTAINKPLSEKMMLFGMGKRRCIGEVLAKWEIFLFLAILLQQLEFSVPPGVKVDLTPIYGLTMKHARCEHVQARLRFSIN
# human recombinant CYP3A4 = human recombinant CYP3A4 (Homo sapiens, UniProt P08684); settings: calculated from ISEF (0.49) and CLint,rhCYP
# Sequence of human recombinant CYP3A4 (P08684 whole entry): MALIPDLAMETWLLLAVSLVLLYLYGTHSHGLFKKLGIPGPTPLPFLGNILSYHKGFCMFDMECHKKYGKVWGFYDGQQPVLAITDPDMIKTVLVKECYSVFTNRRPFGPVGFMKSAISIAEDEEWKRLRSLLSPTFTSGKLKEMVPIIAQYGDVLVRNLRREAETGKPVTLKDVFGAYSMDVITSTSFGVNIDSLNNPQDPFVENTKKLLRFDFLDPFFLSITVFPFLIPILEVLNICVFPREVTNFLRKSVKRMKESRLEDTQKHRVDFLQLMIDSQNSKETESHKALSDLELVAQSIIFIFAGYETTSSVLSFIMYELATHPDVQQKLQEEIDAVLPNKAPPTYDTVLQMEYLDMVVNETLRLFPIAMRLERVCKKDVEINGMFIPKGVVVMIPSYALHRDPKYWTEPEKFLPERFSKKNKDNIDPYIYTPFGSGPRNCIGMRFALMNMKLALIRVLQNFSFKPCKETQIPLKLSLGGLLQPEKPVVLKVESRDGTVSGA
# CYP3A5 [2] = molecular target: T2, CYP3A5 (Homo sapiens, UniProt P20815); settings: calculated from ISEF (0.43) and CLint,rhCYP
# T2 sequence (P20815 whole entry): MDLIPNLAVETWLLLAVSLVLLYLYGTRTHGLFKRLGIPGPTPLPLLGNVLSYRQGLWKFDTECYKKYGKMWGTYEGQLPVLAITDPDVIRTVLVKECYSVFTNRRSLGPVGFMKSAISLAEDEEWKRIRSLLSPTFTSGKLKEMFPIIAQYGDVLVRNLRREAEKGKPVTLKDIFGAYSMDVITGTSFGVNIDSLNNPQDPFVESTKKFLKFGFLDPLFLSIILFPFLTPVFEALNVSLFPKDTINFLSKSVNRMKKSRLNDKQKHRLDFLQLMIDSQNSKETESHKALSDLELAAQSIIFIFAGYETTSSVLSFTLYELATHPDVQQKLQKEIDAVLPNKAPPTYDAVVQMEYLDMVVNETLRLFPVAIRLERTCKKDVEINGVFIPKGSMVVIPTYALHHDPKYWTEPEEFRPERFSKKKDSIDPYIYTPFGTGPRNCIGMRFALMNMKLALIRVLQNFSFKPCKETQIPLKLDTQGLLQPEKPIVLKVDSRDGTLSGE
# [3] = Chinese cancer volunteers; cited from earlier work
# P-gp = settings: previous studies and drug package inserts; cited from earlier work
# in vitro = settings: human, microsomes, pH 7.4
# HLM = settings: anlotinib as substrate in HLMs
# [4] = system: anlotinib metabolism in HLM; experiment: in vitro; settings: human, pH 7.4
# CYP3A5 [5] = molecular target: T2, CYP3A5; experiment: biochemical
# [6] = victim erlotinib, cancer subjects; cited from earlier work
# CYP1A2 [7] = molecular target: T1, CYP1A2; experiment: biochemical
compound,measurement,setting,value
COc1cc2c(Oc3ccc4[nH]c(C)cc4c3F)ccnc2cc1OCC1(N)CC1 [Anlotinib],"fm, share of anlotinib metabolized by CYP1A2",CYP1A2 [1],35%
same,"fm, share of anlotinib metabolized by CYP3A4",human recombinant CYP3A4,35%
same,"fm, share of anlotinib metabolized by CYP3A5",CYP3A5 [2],29%
same,CLpo,[3],11.014 L/h
same,P-gp substrate characteristics,P-gp,non-substrate
same,microsomal CLint,in vitro,18 µL/min/mg
CC[C@H]1OC(=O)[C@H](C)[C@@H](O[C@H]2C[C@@](C)(OC)[C@@H](O)[C@H](C)O2)[C@H](C)[C@@H](O[C@@H]2O[C@H](C)C[C@H](N(C)C)[C@H]2O)[C@](C)(OC)C[C@@H](C)C(=O)[C@H](C)[C@@H](O)[C@]1(C)O [clarithromycin],Inhibition mechanism (Lineweaver-Burk plots),HLM,mixed inhibitors
same,Ki,[4],3.02 µM
same,Ki,CYP3A5 [5],6.88 µM
CC(=O)N1CCN(c2ccc(OCC3COC(Cn4ccnc4)(c4ccc(Cl)cc4Cl)O3)cc2)CC1 (stereo not drawn) [ketoconazole],Inhibition mechanism (Lineweaver-Burk plots),HLM,mixed inhibitors
CO[C@H]1/C=C/O[C@@]2(C)Oc3c(C)c(O)c4c(O)c(c(/C=N/N5CCN(C)CC5)c(O)c4c3C2=O)NC(=O)/C(C)=C\C=C\[C@H](C)[C@H](O)[C@@H](C)[C@@H](O)[C@@H](C)[C@H](OC(C)=O)[C@@H]1C [rifampicin],AUC0–∞ of erlotinib reduced to (fold) by the labelled perpetrator,[6],0.33 fold
same,Cmax of erlotinib reduced to (fold) by the labelled perpetrator,[6],0.71 fold
C[C@H]1COc2c(N3CCN(C)CC3)c(F)cc3c(=O)c(C(=O)O)cn1c23 [levofloxacin],Inhibition mechanism (Lineweaver-Burk plots),HLM,mixed inhibitors
same,Ki,[4],4.87 µM
same,Ki,CYP1A2 [7],4.73 µM
